Results published in patent US10822348B2, “Inhibitors of Bruton's tyrosine kinase and methods of their use” (JANSSEN PHARMACEUTICA NV, priority 2015, dated 2020).

Molecular target: unphosphorylated-BTK kinase domain (UP-BTK), GST-tagged human BTK (389-659aa) (Homo sapiens (Human), UniProt Q06187)
Test: BTK kinase Lanthascreen binding assay
Method: BTK Kinase Lanthascreen Binding Assay:
A BTK kinase lanthascreen binding assay monitors compound binding to unphosphorylated-BTK kinase domain (UP-BTK), by competing with a fluorescent labeled tracer. […] Data were analyzed using Xlfit™ version 5.3 from ID Business Solutions (Guildford), Microsoft Excel add-in. pIC50 refers to the negative log of the IC50 in molar.

Sequence of unphosphorylated-BTK kinase domain (UP-BTK), GST-tagged human BTK (389-659aa) (Q06187 389-659): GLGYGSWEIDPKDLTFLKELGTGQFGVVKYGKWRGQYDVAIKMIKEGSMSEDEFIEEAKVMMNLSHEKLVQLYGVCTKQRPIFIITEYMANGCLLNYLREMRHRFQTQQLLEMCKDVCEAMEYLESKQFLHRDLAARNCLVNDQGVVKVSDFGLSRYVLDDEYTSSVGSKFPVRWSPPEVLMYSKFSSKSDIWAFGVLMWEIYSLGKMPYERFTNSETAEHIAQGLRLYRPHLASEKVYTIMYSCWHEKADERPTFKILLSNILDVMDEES

Structure (SMILES) | IC50 (read-out: BTK_I_binding pIC50 (converted)) [nM] | BTK_I_binding pIC50 (negative log of the IC50 in molar, 60 minutes incubation with 50 nM Tracer 236)
C=CC(=O)N1C[C@@H](F)C[C@@H](NC(=O)c2sc3nccc4c3c2NC(=O)N4c2ccc(Oc3ccccc3)cc2C)C1 [Example 3, N-((3R,5S)-1-Acryloyl-5-fluoropiperidin-3-yl)-5-(2-methyl-4-phenoxyphenyl)-4-oxo-4,5-dihydro-3H-1-thia-3,5,8-triazaacenaphthylene-2-carboxamide] | 12.6 | 
O=C(CCCC(=O)NCCCOCCOCCOCCCNC(=O)CCCC[C@H]1SC[C@H]2NC(=O)N[C@H]21)NC/C=C/C(=O)N1CCCC(NC(=O)c2sc3nccc4c3c2NC(=O)N4c2ccc(Oc3ccccc3)cn2)C1 (stereo partly drawn) [Example 780, N^1-(15-oxo-19-((3aR,4R,6aS)-2-oxohexahydro-1H-thieno[3,4-d]imidazol-4-yl)-4,7,10-trioxa-14-azanonadecyl)-N^5-((E)-4-oxo-4-(3-(4-oxo-5-(5-phenoxypyridin-2-yl)-4,5-dihydro-3H-1-thia-3,5,8-triazaacenaphthylene-2-carboxamido)piperidin-1-yl)but-2-en-1-yl)glutaramide] |  | 6.3
